Data reported in publication PMC7699247 (Antibiotics, 2020).
Read-outs that look alike come from different tables or passages of the source.

What was measured:
[1] = molecular target: T1, membrane-bound E. coli F1F0-ATPase (Escherichia coli, UniProt P0ABB4); experiment: biochemical; design: endogenous in cells; host or cells: Escherichia coli culture; crude membrane pellet after EDTA, freeze-thaw, sonication and centrifugation; species or system Escherichia coli (ATCC 25922)
Procedure: The supernatant is then removed.
Assays for each phosphate concentration were done in triplicate.
All tests were performed in triplicate.
IC50 values were determined using the PRISM® 5.04 (GraphPad software, San Diego, CA, USA) software, from a dose-response curve established by drawing the percentage of enzymatic activity (%) at different concentrations of the inhibitor expressed in terms of a log (inhibitor) (μM).
Different volumes of the stock solution of venom prepared in the buffer tris-HCl (pH = 8.5; 50 mM) are added to the reaction medium containing the transmembrane enzyme followed by ATP at 100 μM. […] The reaction is then stopped by the addition of 1% SDS (v/v). […] All assays were performed in triplicate.
Different volumes of the stock solution of phospholipase A2 are added to the reaction medium containing the isolated membrane-bound enzyme followed by ATP at 100 μM.
The effect of melittin on the membrane-bound F1F0-ATPase is studied as described in Section 4.7. Different volumes of the stock solution of melittin are added to the reaction medium containing the enzyme followed by ATP at 100 μM. […] The reaction is then stopped using a solution of 1% SDS (v/v). […] IC50 values were obtained from the dose-response curve using PRISM® 5.04 software. All assays were done in triplicate.

[2] = molecular target: T1, membrane-bound E. coli F1F0-ATPase; design: endogenous in cells; host or cells: Escherichia coli culture; crude membrane pellet after EDTA, freeze-thaw, sonication and centrifugation; details: literature value, ref [7]; cited from earlier work
Source text: Figure 2 (a) Dose-response curve representing the enzymatic activity (%) of E. coli F1F0-ATPase as a function of the log of the concentration of thymoquinone, quercetin and melittin, respectively. Error bars show the standard deviation obtained from experiments done in triplicate; (b) Comparison between the IC50 values of the reference inhibitors obtained by the developed method and from the literature. […] Good repeatabilities were obtained with relative standard deviations (RSD) below 6% and R^2 > 0.99. Likewise, melittin is found to be a strong potent inhibitor of E. coli F1F0-ATPase with its low IC50 value in the micromolar range.

[3] = molecular target: T1, membrane-bound E. coli F1F0-ATPase; experiment: Combination effect of PLA2 and melittin on membrane-bound E. coli F1F0-ATPase; details: read-out: remaining enzymatic activity, melittin alone

| SMILES | IC50 ([1]; read-out: IC50) | IC50 [2] | remaining activity at 9 µM [3] | IC50 [1] | maximum inhibition ([1]; plateau of concentration curve, ATP 100 μM, 40 min, 37 °C, pH 8.5, triplicate) |
| --- | --- | --- | --- | --- | --- |
| CC1=CC(=O)C(C(C)C)=CC1=O [Thymoquinone, thymoquinone] | 57.5 ± 2.99 µM | – | – | – | – |
| O=c1c(O)c(-c2ccc(O)c(O)c2)oc2cc(O)cc(O)c12 [Quercetin, quercetin] | 30 ± 1.5 µM | 33 µM | – | – | – |
| CC[C@H](C)[C@H](NC(=O)CN)C(=O)NCC(=O)N[C@@H](C)C(=O)N[C@H](C(=O)N[C@@H](CC(C)C)C(=O)N[C@@H](CCCCN)C(=O)N[C@H](C(=O)N[C@@H](CC(C)C)C(=O)N[C@H](C(=O)N[C@H](C(=O)NCC(=O)N[C@@H](CC(C)C)C(=O)N1CCC[C@H]1C(=O)N[C@@H](C)C(=O)N[C@@H](CC(C)C)C(=O)N[C@H](C(=O)N[C@@H](CO)C(=O)N[C@@H](Cc1c[nH]c2ccccc12)C(=O)N[C@H](C(=O)N[C@@H](CCCCN)C(=O)N[C@@H](CCCNC(=N)N)C(=O)N[C@@H](CCCCN)C(=O)N[C@@H](CCCNC(=N)N)C(=O)N[C@@H](CCC(N)=O)C(=O)N[C@@H](CCC(N)=O)C(N)=O)[C@@H](C)CC)[C@@H](C)CC)[C@@H](C)O)[C@@H](C)O)C(C)C)C(C)C [melittin] | – | – | 51.7% | 9.03 ± 0.27 µM | about 80% |
